Test results reported in patent publication US12545900B2, “CGAS/DNCV-like nucleotidyltransferases and uses thereof” (Dana-Farber Cancer Institute, Inc., priority 2018, dated 2026).
Entries after “also recorded” stand apart in the source; their conditions may differ.

Experiments:
Mus musculus STING = target: T1, Mus musculus STING (Mus musculus, UniProt Q3TBT3); assay: Gel shift assay, radiolabeled nucleotide binding to STING (native PAGE); details: radiolabeled nucleotide, 0, 4, 20, 100 μM protein
T1 construct: 6xHis-SUMO2 (N, cleaved yes); made in house; host or cells: E. coli BL21 CodonPlus (DE3)-RIL
T1 sequence (Q3TBT3 138-378 limits assumed): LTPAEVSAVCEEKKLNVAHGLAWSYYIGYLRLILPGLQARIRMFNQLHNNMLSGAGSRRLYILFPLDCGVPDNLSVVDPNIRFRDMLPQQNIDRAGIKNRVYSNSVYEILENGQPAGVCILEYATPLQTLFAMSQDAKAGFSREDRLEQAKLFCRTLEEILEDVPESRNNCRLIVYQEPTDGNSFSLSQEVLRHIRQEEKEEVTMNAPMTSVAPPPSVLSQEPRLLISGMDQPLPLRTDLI
Protocol: (§1) Briefly, recombinant Mus musculus STING or RECON, at 4, 20, or 100 μM was incubated with radiolabeled nucleotide (≤1 μM final concentration) in gel shift buffer for final conditions of 50 mM Tris pH 7.5, 60 mM KCl, 5 mM Mg (OAc) 2, and 1 mM DTT. Experiments were prepared by combining 1 μL of [α-^32P] labeled nucleotide, 2 uL 5x gel shift buffer, 5 μL of nuclease free water, and started by addition of 2 μL of recombinant protein in storage buffer.
(§2) After 30 min of equilibration, bound and free nucleotide were separated by 6% native PAGE in 0.5x TBE buffer. Gels were dried, and exposed to phosphorscreen prior to detection by Typhoon Trio Variable Mode Imager system (GE Healthcare). Gel shifts were quantified with ImageQuant® 5.2 and the % bound nucleotide was calculated as a proportion of total bound and free nucleotide for each lane, after subtraction of background signal. Gel shift data is representative of ≥2 independent experiments.

RECON [1] = target: T2, RECON (Mus musculus, UniProt Q8VC28); assay: Gel shift assay, radiolabeled nucleotide binding to RECON (native PAGE); details: radiolabeled nucleotide, 0, 4, 20, 100 μM protein
T2 construct: 6xHis-SUMO2 (N, cleaved yes); made in house; host or cells: E. coli BL21 CodonPlus (DE3)-RIL
T2 sequence (Q8VC28 1-323): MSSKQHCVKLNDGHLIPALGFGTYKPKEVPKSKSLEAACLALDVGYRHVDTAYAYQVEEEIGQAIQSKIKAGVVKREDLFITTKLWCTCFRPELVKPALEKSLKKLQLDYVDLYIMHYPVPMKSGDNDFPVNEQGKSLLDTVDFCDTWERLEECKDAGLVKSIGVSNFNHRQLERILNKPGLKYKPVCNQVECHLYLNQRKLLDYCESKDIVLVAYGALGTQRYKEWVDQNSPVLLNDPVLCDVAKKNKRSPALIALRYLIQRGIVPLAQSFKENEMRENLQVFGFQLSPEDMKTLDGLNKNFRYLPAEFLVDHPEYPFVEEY
Protocol: as §1, §2

RECON [2] = target: T2, RECON; assay: RECON enzyme assay (oxidation of NADPH cosubstrate); format: biochemical; details: nucleotide 50-0.05 μM
Protocol: Activity assays were performed as previously described (McFarland et al. (2017) Immunity 46:433-445). Briefly, a 2-fold dilution series of nucleotide from 50-0.05 μM was incubated in 1×PBS with 200 μM NADPH (cosubstrate) and 25 μM 9,10-Phenanthrenequinone (substrate). The reactions were started with the addition of RECON to a final concentration of 0.5 μM and absorbance at 340 nm was monitored at 20 s intervals for 20 min. Slope of each reaction in the linear range (20-250 s) was used to calculate activity (Linear regression/straight Line analysis, Prism 7.0c). Values were normalized to reactions with zero nucleotide added, which defined 100% activity.

CapE = target: T3, CapE (Escherichia coli, UniProt Q6XGD4); assay: Phospholipase assay (EnzChek Phospholipase A1), CapE; format: biochemical, E. coli; details: 0.1, 1, and 10-fold molar ratios of nucleotide to phospholipase
T3 construct: made in house; host or cells: E. coli BL21 CodonPlus (DE3)-RIL
Protocol: Patatin-like lipases were assayed as previously described (Gaspar & Machner (2014) Proc. Natl. Acad. Sci. U.S.A. 111:4560-4565). Briefly, CapV and CapE were produced recombinantly and catalytic activity was measured using the EnzChek® Phospholipase A1 Assay Kit (Invitrogen) according to the manufacturer's instructions. […] Assays were monitored fluorometrically Ex=460 nm/Em=515 nm, for 60 min at ˜90 s intervals at room temperature using a Biotek Synergy plate reader. Slope of each reaction in the linear range was used to calculate activity (Linear regression/straight line analysis, Prism 7.0c). A PLA1 standard curve from 20-0.02 U was used to interpolate phospholipase activity. Emission was monitored at a gain of 100 and/or 50 in order to extend the linear range of the assay.

[3] = tested on: interferon-β reporter in HEK293T cells expressing Mus musculus STING; assay: Cellular assay for interferon-β induction (in-cell STING reporter assay); details: HEK293T cells transfected with plasmid overexpressing the synthesizing enzyme

T3 sequence (Q6XGD4 whole entry): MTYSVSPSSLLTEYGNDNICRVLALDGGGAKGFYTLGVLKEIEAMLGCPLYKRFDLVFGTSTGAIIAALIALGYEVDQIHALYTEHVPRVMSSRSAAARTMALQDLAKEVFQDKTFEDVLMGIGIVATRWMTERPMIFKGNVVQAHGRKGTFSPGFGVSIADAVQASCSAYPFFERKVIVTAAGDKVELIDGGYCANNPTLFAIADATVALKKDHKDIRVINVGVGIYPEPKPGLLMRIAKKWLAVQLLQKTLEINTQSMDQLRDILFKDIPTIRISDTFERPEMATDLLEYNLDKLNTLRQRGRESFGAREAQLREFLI

Row | SMILES | recognition/binding of nucleotide by STING (Mus musculus STING) | recognition/binding of nucleotide by RECON (RECON [1]) | inhibition of RECON enzymatic activity (RECON [2]) | activation of CapE phospholipase activity (CapE) | activation of STING-dependent type I interferon (IFN-β reporter) [3]
1 | Nc1nc2c(ncn2[C@@H]2O[C@@H]3COP(=O)(O)O[C@H]4[C@@H](O)[C@H](n5cnc6c(N)ncnc65)O[C@@H]4COP(=O)(O)O[C@H]4[C@@H](O)[C@H](n5cnc6c(N)ncnc65)O[C@@H]4COP(=O)(O)O[C@H]3[C@H]2O)c(=O)[nH]1 [cAAG, 3′3′3′ tricyclic adenosine monophosphate-adenosine monophosphate-guanosine monophosphate] | escaped STING recognition | detected by RECON | inhibition of RECON enzymatic activity | – | –
2 | Nc1ncnc2c1ncn2C1OC2COP(=O)(O)OC3C(COP(=O)(O)OC2C1O)OC(n1ccc(=O)[nH]c1=O)C3O (stereo not shown) [cUMP-AMP, 3′3′ cyclic uridine monophosphate-adenosine monophosphate] | – | bound to cUMP-AMP; also recorded: detected by RECON | inhibited RECON function, albeit with a reduced potency compared to the previously reported inhibition by c-di-AMP and 3′3′ cGAMP | CapE as a direct cUMP-AMP receptor | failed to activate STING-dependent type I interferon in cells
